# From ChEMBL document CHEMBL3244027, “Syntheses, analgetic activity, and physical dependence capacity of 5-phenyl-6,7-benzomorphan derivatives” (J Med Chem, 1979)
# Calls of active or inactive are those of the source. No cut-off for these calls is given here.
# Columns and labels:
# Mus musculus [1] = experiment: Analgetic activity against CF-1 mouse assessed as increase in reaction time at 320 mg/kg, po by heat stimulus induced tail flick response assay; type: functional, organism-based; set-up: dose 320 mg/kg
# Mus musculus [2] = experiment: Analgetic activity in sc dosed CF1S mouse assessed as writhing by phenylquinone writhing test; type: functional; settings: Mus musculus, CF1S, sc; read-out: ED50
# Mus musculus [3] = experiment: Analgetic activity against CF-1 mouse assessed as increase in reaction time at 320 mg/kg, sc by heat stimulus induced tail flick response assay; type: functional, organism-based; set-up: dose 320 mg/kg
# Mus musculus [4] = experiment: Analgetic activity against CF-1 mouse assessed as increase in reaction time at 40 mg/kg, sc by heat stimulus induced tail flick response assay; type: functional, organism-based; set-up: dose 40 mg/kg
# Mus musculus [5] = species on record: Mus musculus; experiment: Analgetic activity in naloxone challenged mouse assessed as frequency pretreated for 2 day by mouse jumping test; type: functional, organism-based
# Mus musculus [6] = experiment: Analgetic activity in po dosed CF1S mouse assessed as writhing by phenylquinone writhing test; type: functional; settings: Mus musculus, CF1S, po; read-out: ED50
# Mus musculus [7] = experiment: Analgetic activity against CF-1 mouse assessed as increase in reaction time at 160 mg/kg, sc by heat stimulus induced tail flick response assay; type: functional, organism-based; set-up: dose 160 mg/kg
# Mus musculus [8] = experiment: Analgetic activity against CF-1 mouse assessed as increase in reaction time at 80 mg/kg, sc by heat stimulus induced tail flick response assay; type: functional, organism-based; set-up: dose 80 mg/kg
structure (smiles),measurement,setting,value
CC1C2Cc3ccc(OC(=O)C(c4ccccc4)c4ccccc4)cc3C1(c1ccccc1)CCN2C(=O)C(c1ccccc1)c1ccccc1.O (configuration not stated),Activity,Mus musculus [1],inactive
same,ED50,Mus musculus [2],> 100 mg/kg
CCCN1CCC2(c3ccccc3)c3cc(O)ccc3CC1C2C (stereo in doubt; 173),Activity,Mus musculus [3],inactive
Br.CN1CCC(c2ccccc2)=CC1Cc1ccccc1 (configuration not stated),Activity,Mus musculus [4],Active
same,Activity,Mus musculus [5],inactive
same,ED50,Mus musculus [6],37 mg/kg
same,ED50,Mus musculus [2],6.6 mg/kg
C[C@@H]1C2Cc3ccc(O)cc3C1(c1ccccc1)CCN2C (mixture of isomers),Activity,Mus musculus [7],Active
CN1CCC(c2ccccc2)=CC1Cc1ccc(F)cc1 (configuration not stated),Activity,Mus musculus [8],Active
CC1C2Cc3ccc(O)cc3C1(c1ccccc1)CCN2Cc1ccco1 (configuration not stated),Activity,Mus musculus [3],inactive
CC(=O)Oc1ccc2c(c1)C1(c3ccccc3)CCN(CC=C(C)C)C(C2)C1C (configuration not stated),Activity,Mus musculus [3],inactive
CC1C2Cc3ccc(O)cc3C1(c1ccccc1)CCN2C/C=C/Cl (configuration not stated),Activity,Mus musculus [1],inactive
same,ED50,Mus musculus [2],> 100 mg/kg
COc1ccc2c(c1)C1(c3ccccc3)CCNC(C2)C1.Cl (configuration not stated),Activity,Mus musculus [3],inactive
same,ED50,Mus musculus [2],100 mg/kg
OCCN1CCC2(c3ccccc3)CC1Cc1ccc(O)cc12 (racemic),Activity,Mus musculus [3],inactive
same,ED50,Mus musculus [2],> 100 mg/kg
Oc1ccc2c(c1)C1(c3ccccc3)CCN(CCCCc3ccccc3)C(C2)C1 (racemic),Activity,Mus musculus [1],inactive
same,ED50,Mus musculus [6],> 100 mg/kg
CC1C2Cc3ccc(O)cc3C1(c1ccccc1)CCN2CCO (configuration not stated),Activity,Mus musculus [8],inactive
COc1ccc2c(c1)C1(c3ccccc3)CCN(CC=C(C)C)C(C2)C1C (configuration not stated),Activity,Mus musculus [3],inactive
same,ED50,Mus musculus [2],> 100 mg/kg
CCOC(=O)CN1CCC2(c3ccccc3)c3cc(O)ccc3CC1C2C (configuration not stated),Activity,Mus musculus [3],inactive
COc1ccc(CC2C=C(c3ccccc3)CCN2C)cc1 (configuration not stated),Activity,Mus musculus [5],inactive
same,Activity,Mus musculus [8],Active
C[C@@H]1C2Cc3ccc(O)cc3C1(c1ccccc1)CCN2CCC(O)(c1ccccc1)c1ccccc1 (some centres not stated),Activity,Mus musculus [1],inactive
same,ED50,Mus musculus [2],> 100 mg/kg
CCCCCN1CCC2(c3ccccc3)CC1Cc1ccc(O)cc12.Cl (racemic),Activity,Mus musculus [1],inactive
same,ED50,Mus musculus [2],23 mg/kg
CN1CCC2(c3ccccc3)CC1Cc1cc(O)c(O)cc12 (racemic),Activity,Mus musculus [3],inactive
Br.CC1=C(c2ccccc2)CCN(C)C1Cc1ccccc1 (configuration not stated),Activity,Mus musculus [7],Active
same,ED50,Mus musculus [2],45 mg/kg
C[C@@H]1C2Cc3ccc(O)cc3C1(c1ccccc1)CCN2CCC(C)(C)O (some centres not stated),Activity,Mus musculus [3],inactive
same,ED50,Mus musculus [2],78 mg/kg
CCOC(=O)CCN1CCC2(c3ccccc3)CC1Cc1ccc(O)cc12 (racemic),ED50,Mus musculus [6],> 100 mg/kg
same,Activity,Mus musculus [3],inactive
same,ED50,Mus musculus [2],78 mg/kg
CCOC(=O)C(C)N1CCC2(c3ccccc3)c3cc(O)ccc3CC1C2C (configuration not stated),Activity,Mus musculus [3],inactive
same,ED50,Mus musculus [2],> 100 mg/kg
Br.Oc1ccc2c(c1)C1(c3ccccc3)CCN(CCN3CCOCC3)C(C2)C1 (racemic),Activity,Mus musculus [1],inactive
same,ED50,Mus musculus [2],> 100 mg/kg
COc1ccc(CC2C=C(c3ccccc3)CCN2C)cc1OC (configuration not stated),Activity,Mus musculus [4],Active
CN(C)CCCN1CCC2(c3ccccc3)CC1Cc1ccc(O)cc12 (racemic),Activity,Mus musculus [3],inactive
Oc1ccc2c(c1)C1(c3ccccc3)CCN(CC3CCC3)C(C2)C1 (stereo in doubt; 145),Activity,Mus musculus [5],inactive
CN1CCC2(c3ccccc3)CC1Cc1ccccc12 (stereo in doubt; 37),Activity,Mus musculus [3],inactive
CN(C)C(=S)Oc1ccc2c(c1)C1(c3ccccc3)CCN(C)C(C2)C1 (racemic),Activity,Mus musculus [1],inactive
same,Activity,Mus musculus [4],inactive
CC1C2Cc3ccc(O)cc3C1(c1ccccc1)CCN2CC12CC3CC(CC(C3)C1)C2.Cl (configuration not stated),Activity,Mus musculus [1],inactive
same,ED50,Mus musculus [6],> 100 mg/kg
Oc1ccc(C23CCNC(Cc4ccc(O)cc42)C3)cc1 (racemic),Activity,Mus musculus [1],inactive
CN1CCC2(c3ccccc3)CC1Cc1ccc(O)cc12 (stereo in doubt; 42),Activity,Mus musculus [8],inactive
CCC1=C(c2ccccc2)CCN(C)C1Cc1ccc(O)cc1 (configuration not stated),Activity,Mus musculus [5],inactive
same,Activity,Mus musculus [8],Active
Oc1ccc2c(c1)C1(c3ccccc3)CCN(CCc3cccs3)C(C2)C1 (racemic),Activity,Mus musculus [1],inactive
c1ccc(C23CCNC(Cc4ccccc42)C3)cc1 (configuration not stated),Activity,Mus musculus [7],Active
Br.CCN1CCC2(c3ccccc3)CC1Cc1ccccc12 (racemic),Activity,Mus musculus [3],inactive
same,ED50,Mus musculus [2],16 mg/kg
O=[N+]([O-])c1ccc(CCN2CCC3(c4ccccc4)CC2Cc2ccc(O)cc23)cc1 (racemic),Activity,Mus musculus [3],inactive
CC1C2Cc3ccc(O)cc3C1(c1ccccc1)CCN2CCC(C#N)(c1ccccc1)c1ccccc1 (stereo in doubt; 167),Activity,Mus musculus [1],inactive
CC(=O)Oc1ccc2c(c1)C1(c3ccccc3)CCN(C)C(C2)C1 (racemic),Activity,Mus musculus [5],inactive
same,Activity,Mus musculus [8],inactive
same,ED50,Mus musculus [2],9.4 mg/kg
Cc1ccc(S(=O)(=O)Oc2ccc3c(c2)C2(c4ccccc4)CCN(C)C(C3)C2)cc1 (racemic),Activity,Mus musculus [8],inactive
C=C(Br)CN1CCC2(c3ccccc3)c3cc(O)ccc3CC1C2C.Cl (configuration not stated),Activity,Mus musculus [4],inactive
same,Activity,Mus musculus [5],inactive
same,ED50,Mus musculus [2],> 100 mg/kg
CC1C2Cc3ccc(O)cc3C1(c1ccccc1)CCN2 (stereo in doubt; 112),Activity,Mus musculus [1],inactive
CC1C2Cc3ccc(O)cc3C1(c1ccccc1)CCN2 (stereo in doubt; 110),Activity,Mus musculus [1],inactive
same,Activity,Mus musculus [3],inactive
C/C(Cl)=C/CN1CCC2(c3ccccc3)c3cc(O)ccc3CC1C2C (racemic),Activity,Mus musculus [7],inactive
same,ED50,Mus musculus [2],> 100 mg/kg
Oc1ccc2c(c1)C1(c3ccccc3)CCN(CCc3ccccc3)C(C2)C1 (racemic),Activity,Mus musculus [4],Active
c1ccc(C23CCNC(Cc4ccccc42)C3)cc1 (racemic),Activity,Mus musculus [8],Active
CC1C2Cc3ccc(O)cc3C1(c1ccccc1)CCN2CCO (racemic),Activity,Mus musculus [1],inactive
same,Activity,Mus musculus [7],inactive
CN1CCC2(c3ccc(Cl)cc3)CC1Cc1ccc(O)cc12 (racemic),Activity,Mus musculus [4],Active
CC1C2Cc3ccc(O)cc3C1(c1ccccc1)CCN2C(=O)C1CC1 (configuration not stated),Activity,Mus musculus [1],inactive
same,ED50,Mus musculus [2],> 100 mg/kg
C/C(Cl)=C\CN1CCC2(c3ccccc3)c3cc(O)ccc3CC1C2C (configuration not stated),Activity,Mus musculus [8],inactive
same,ED50,Mus musculus [2],> 100 mg/kg
CC(C)=CCN1CCC2(c3ccccc3)c3cc(O)ccc3CC1C2C (stereo in doubt; 207),Activity,Mus musculus [5],inactive
CC(O)C(=O)O.CC1C2Cc3ccc(O)cc3C1(c1ccccc1)CCN2C/C=C/c1cccs1 (configuration not stated),Activity,Mus musculus [1],inactive
same,ED50,Mus musculus [6],> 100 mg/kg
CC1C2Cc3ccc(O)cc3C1(c1ccccc1)CCN2CCC(c1ccccc1)c1ccccc1 (stereo in doubt; 188),Activity,Mus musculus [1],inactive
Oc1ccc2c(c1)C1(c3ccccc3)CCN(C/C=C/Cl)C(C2)C1 (racemic),Activity,Mus musculus [5],inactive
same,ED50,Mus musculus [2],> 100 mg/kg
CCCCCCCCCCN1CCC2(c3ccccc3)c3cc(O)ccc3CC1C2C.Cl (configuration not stated),Activity,Mus musculus [1],inactive
same,ED50,Mus musculus [6],> 100 mg/kg
same,ED50,Mus musculus [2],70 mg/kg
CC1C2Cc3ccc(O)cc3C1(c1ccccc1)CCN2CCN1CCOCC1 (configuration not stated),Activity,Mus musculus [1],inactive
same,ED50,Mus musculus [6],> 100 mg/kg
same,ED50,Mus musculus [2],> 100 mg/kg
C#CCN1CCC2(c3ccccc3)c3cc(O)ccc3CC1C2C (configuration not stated),Activity,Mus musculus [5],inactive
C=CCN1CCC2(c3ccccc3)CC1Cc1ccc(O)cc12 (stereo in doubt; 146),Activity,Mus musculus [1],inactive
CCOC(=O)N1CCC2(c3ccccc3)CC1Cc1ccc(OC(C)=O)cc12 (racemic),Activity,Mus musculus [1],inactive
same,ED50,Mus musculus [6],> 100 mg/kg
Oc1ccc2c(c1)C1(c3ccc(Cl)cc3)CCNC(C2)C1 (racemic),Activity,Mus musculus [3],inactive
Oc1ccc2c(c1)C1(c3ccccc3)CCN(C/C=C/c3ccccc3)C(C2)C1 (racemic),Activity,Mus musculus [1],Active
Br.Clc1ccc(C23CCN(CCc4ccccc4)C(Cc4ccccc42)C3)cc1 (racemic),Activity,Mus musculus [1],inactive
same,ED50,Mus musculus [2],> 100 mg/kg
c1ccc(CCN2CCC3(c4ccccc4)CC2Cc2ccccc23)cc1 (configuration not stated),Activity,Mus musculus [7],inactive
CC1C2Cc3ccc(O)cc3C1(c1ccccc1)CCN2CCc1ccc([N+](=O)[O-])cc1.Cl (configuration not stated),Activity,Mus musculus [1],inactive
same,ED50,Mus musculus [6],> 100 mg/kg
same,Activity,Mus musculus [3],inactive
Br.CN1CCC2(c3ccccc3)CC1Cc1ccc(F)cc12 (racemic),ED50,Mus musculus [6],33 mg/kg
same,Activity,Mus musculus [8],inactive
CC1C2Cc3ccc(O)cc3C1(c1ccccc1)CCN2CC1CCC1 (stereo in doubt; 219),Activity,Mus musculus [5],inactive
